Drawing on patent publication US20250195524A1, “PYRIMIDO-PYRIDAZINONE COMPOUND AS TOLL-LIKE RECEPTOR AGONIST” (SHANGHAI VISONPHARMA CO., LTD., priority 2022, published 2025), this text covers EC50 for 27 molecules.

Usually EC50 stands for the midpoint of the concentration-response curve. The low end stands for a more potent agent, the high end for a less potent agent.

The target in the assay is T1, human TLR8 (Homo sapiens, UniProt Q9NR97).
T1 construct: host or cells: HEK-Blue hTLR8 (HEK293-derived reporter cells)
T1 sequence (Q9NR97 27-1041): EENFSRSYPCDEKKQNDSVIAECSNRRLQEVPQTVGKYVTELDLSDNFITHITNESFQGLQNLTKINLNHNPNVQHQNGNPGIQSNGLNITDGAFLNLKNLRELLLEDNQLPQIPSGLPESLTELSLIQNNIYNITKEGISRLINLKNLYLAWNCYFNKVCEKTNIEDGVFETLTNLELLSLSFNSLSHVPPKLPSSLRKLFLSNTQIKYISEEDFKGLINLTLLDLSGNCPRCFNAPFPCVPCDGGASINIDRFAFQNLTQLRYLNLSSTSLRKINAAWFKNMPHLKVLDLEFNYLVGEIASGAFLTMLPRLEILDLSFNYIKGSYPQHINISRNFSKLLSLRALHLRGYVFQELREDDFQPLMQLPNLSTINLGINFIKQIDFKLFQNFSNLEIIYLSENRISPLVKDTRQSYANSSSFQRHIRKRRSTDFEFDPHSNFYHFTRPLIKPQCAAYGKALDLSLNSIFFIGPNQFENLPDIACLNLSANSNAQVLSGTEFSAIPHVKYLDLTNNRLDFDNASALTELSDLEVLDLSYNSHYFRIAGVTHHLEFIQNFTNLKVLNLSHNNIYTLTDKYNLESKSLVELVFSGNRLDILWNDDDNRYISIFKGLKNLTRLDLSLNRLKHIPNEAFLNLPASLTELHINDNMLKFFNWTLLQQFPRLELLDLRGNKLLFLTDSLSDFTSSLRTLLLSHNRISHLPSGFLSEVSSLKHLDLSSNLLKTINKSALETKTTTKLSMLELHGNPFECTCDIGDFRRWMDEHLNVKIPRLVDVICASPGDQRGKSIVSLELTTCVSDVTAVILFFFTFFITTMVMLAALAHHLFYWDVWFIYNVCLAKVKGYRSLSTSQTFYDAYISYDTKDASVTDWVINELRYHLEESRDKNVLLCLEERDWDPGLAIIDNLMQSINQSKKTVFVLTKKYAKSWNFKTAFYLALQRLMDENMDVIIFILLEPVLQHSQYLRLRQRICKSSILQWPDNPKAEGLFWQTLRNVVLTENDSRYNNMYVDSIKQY
In words: HEK-Blue hTLR8 SEAP reporter gene agonism assay. The class given is cell-based. The conditions noted are these: HEK-Blue hTLR8 cells, SEAP (Quanti-blue, 650 nm), 16-22 hours incubation. The protocol: The agonistic activity of the compounds of the present invention on TLR7 or TLR8 was evaluated using HEK-Blue™ cells stably expressing human TLR7 or TLR8. And the agonistic activity was assayed using their ability to induce the SEAP reporter gene under the control of the IFN-β minimal promoter fused to five NF-κB and ap-1 binding sites, specifically as follows:
HEK-Blue™ hTLR7 (Invivogen, 80,000 cells per well) or HEK-Blue™ hTLR8 (Invivogen, 60,000 cells per well) was added to a 96-well cell culture plate, the compound to be tested is added whereafter, and the final concentration of the compound(s) to be tested in the medium ranged from 0.001 to 36 μM, then incubated for 16-22 hours. SEAP levels in the cell culture medium were detected using HEK-Blue assay reagent Quanti-blue (Invivogen) according to the manufacturer's instructions. Neo2 Multifunctional Enzyme Labeler (Bio-tek) was used to determine the light absorption at 650 nm. GraphPad Prism was utilized to calculate the EC50, which is the half effective concentration of the drug.
A general note: In a reporter assay the amount or activity of a reporter protein is the signal.
For `CCCC(C)Nc1nc(N)nc2cnn(Cc3ccc(CN4CCCC4)cc3)c(=O)c12` (stereo not drawn) [Compound I-1, 2-amino-4-(pentan-2-ylamino)-6-(4-(pyrrolidin-1-ylmethyl)benzyl)pyrimido[4,5-d]pyridazin-5(6H)-one], the EC50 stood at 107 nM.

In the case of `CCCCNc1nc(N)nc2cnn(Cc3ccc(C(=O)N4CCNCC4)cc3)c(=O)c12` [Compound I-2, 2-amino-4-(butylamino)-6-(4-(piperazine-1-carbonyl)benzyl)pyrimido[4,5-d]pyridazin-5(6H)-one], a half-maximal effect (EC50) was put at 102 nM.

The molecule `CCCCNc1nc(N)nc2cnn(Cc3ccc(C(=O)N4CCN(C)CC4)cc3)c(=O)c12` [Compound I-3, 2-amino-4-(butylamino)-6-(4-(4-methylpiperazine-1-carbonyl)benzyl)pyrimido[4,5-d]pyridazin-5(6H)-one] showed an EC50 of 615 nM.

As for `COCCNc1nc(N)nc2cnn(Cc3ccc(CN4CCCC4)cc3)c(=O)c12` [Compound I-4, 2-amino-4-((2-methoxyethyl)amino)-6-(4-(pyrrolidin-1-ylmethyl)benzyl)pyrimido[4,5-d]pyridazin-5(6H)-one], the EC50 was found to be 403 nM.

`CCCCNc1nc(N)nc2cnn(Cc3ccc(CN4CCCC4)cc3)c(=O)c12` [Compound I-5, 2-amino-4-(butylamino)-6-(4-(pyrrolidin-1-ylmethyl)benzyl)pyrimido[4,5-d]pyridazin-5(6H)-one] yielded an EC50 of 149 nM.

`CCCCNc1nc(N)nc2cnn(Cc3ccc(CN(C)C)cc3)c(=O)c12` [Compound I-7, 2-amino-4-(butylamino)-6-(4-((dimethylamino)methyl)benzyl)pyrimido[4,5-d]pyridazin-5(6H)-one] returned an EC50 of 153 nM.

As for `CCCCNc1nc(N)nc2cnn(Cc3ccc4c(c3)CCNC4)c(=O)c12` [Compound I-8, 2-amino-4-(butylamino)-6-((1,2,3,4-tetrahydroisoquinolin-6-yl)methyl)pyrimido[4,5-d]pyridazin-5(6H)-one], the EC50 was 229 nM.

Molecule `CCCCNc1nc(N)nc2cnn(Cc3ccc(CN4CCNCC4)cc3)c(=O)c12` [Compound I-9, 2-amino-4-(butylamino)-6-(4-(piperazin-1-ylmethyl)benzyl)pyrimido[4,5-d]pyridazin-5(6H)-one] showed an EC50 of 183 nM.

`CCCCNc1nc(N)nc2cnn(Cc3ccc(CNC4CC4)cc3)c(=O)c12` [Compound I-10, 2-amino-4-(butylamino)-6-(4-((cyclopropylamino)methyl)benzyl)pyrimido[4,5-d]pyridazin-5(6H)-one] had an EC50 of 569 nM.

For `CCCCNc1nc(N)nc2cnn(Cc3ccc(CN4CC5CC(C4)N5)cc3)c(=O)c12` [Compound I-11, 6-(4-((3,6-Diazabicyclo[3.1.1]heptan-3-yl)methyl)benzyl)-2-amino-4-(butylamino)pyrimido[4,5-d]pyridazin-5(6H)-one], the EC50 was found to be 267 nM.

The molecule `CCCCNc1nc(N)nc2cnn(Cc3ccc(CN4CCC5(CNC5)C4)cc3)c(=O)c12` [Compound I-12, 6-(4-((2,6-Diazaspiro[3.4]octan-6-yl)methyl)benzyl)-2-amino-4-(butylamino)pyrimido[4,5-d]pyridazin-5(6H)-one] came in with an EC50 of 185 nM.

For the molecule `CCCCNc1nc(N)nc2cnn(Cc3ccc4c(c3)CCN(C(C)C)C4)c(=O)c12` [Compound I-13, 2-amino-4-(butylamino)-6-((2-isopropyl-1,2,3,4-tetrahydroisoquinolin-6-yl)methyl)pyrimido[4,5-d]pyridazin-5(6H)-one], the EC50 stood at 549 nM.

With `CCCCNc1nc(N)nc2cnn(Cc3ccc(CN4CCCC4)cc3OC)c(=O)c12` [Compound I-14, 2-amino-4-(butylamino)-6-(2-methoxy-4-(pyrrolidin-1-ylmethyl)benzyl)pyrimido[4,5-d]pyridazin-5(6H)-one], the EC50 was 365 nM.

As for `CCCCNc1nc(N)nc2cnn(Cc3ccc(CN4CCCC4)cc3F)c(=O)c12` [Compound I-15, 2-amino-4-(butylamino)-6-(2-fluoro-4-(pyrrolidin-1-ylmethyl)benzyl)pyrimido[4,5-d]pyridazin-5(6H)-one], the midpoint of the response, the EC50, lay at 326 nM.

In turn, `CCCCNc1nc(N)nc2cnn(Cc3ccc(CN4CCCC4)nc3OC)c(=O)c12` [Compound I-16, 2-amino-4-(butylamino)-6-((2-methoxy-6-(pyrrolidin-1-ylmethyl)pyridin-3-yl)methyl)pyrimido[4,5-d]pyridazin-5(6H)-one] registered an EC50 of 354 nM.

As to `CCCCNc1nc(N)nc2cnn(Cc3ccc(CN4CCCC4)c(OC)c3)c(=O)c12` [Compound I-17, 2-amino-4-(butylamino)-6-(3-methoxy-4-(pyrrolidin-1-ylmethyl)benzyl)pyrimido[4,5-d]pyridazin-5(6H)-one], the EC50 came to 368 nM.

In the case of `CCCCNc1nc(N)nc2cnn(Cc3ccc(CN4CCCC4)c(F)c3)c(=O)c12` [Compound I-18, 2-amino-4-(butylamino)-6-(3-fluoro-4-(pyrrolidin-1-ylmethyl)benzyl)pyrimido[4,5-d]pyridazin-5(6H)-one], the EC50 came to 218 nM.

As for `CCCCNc1nc(N)nc2cnn(Cc3ccc(CN(CCC)CCO)cc3)c(=O)c12` [Compound I-21], the EC50 was determined as 388 nM.

`CCCCNc1nc(N)nc2cnn(Cc3ccc(CN(CCO)CCO)cc3)c(=O)c12` [Compound I-23, 2-amino-6-(4-((bis(2-hydroxyethyl)amino)methyl)benzyl)-4-(butylamino)pyrimido[4,5-d]pyridazin-5(6H)-one] displayed an EC50 of 222 nM.

`CCC[C@@H](C)Nc1nc(N)nc2cnn(Cc3ccc(CN(CCC)CCO)cc3)c(=O)c12` [Compound I-26] yielded an EC50 of 322 nM.

For the molecule `CCC[C@@H](C)Nc1nc(N)nc2cnn(Cc3ccc(CN(CCO)CCO)cc3)c(=O)c12` [Compound I-27, (R)-2-amino-6-(4-((bis(2-hydroxyethyl)amino)methyl)benzyl)-4-(pentan-2-ylamino)pyrimido[4,5-d]pyridazin-5(6H)-one], it took 286 nM to reach a half-maximal effect (EC50).

In turn, `CCC[C@@H](C)Nc1nc(N)nc2cnn(Cc3ccc(CN4CC5(COC5)C4)cc3)c(=O)c12` [Compound I-41, (R)-6-(4-((2-oxo-6-azaspiro[3.3]heptan-6-yl)methyl)benzyl)-2-amino-4-(pentan-2-ylamino)pyrimido[4,5-d]pyridazin-5(6H)-one] registered an EC50 of 101 nM.

For the molecule `CCC[C@@H](C)Nc1nc(N)nc2cnn(Cc3ccc(CNCCO)cc3)c(=O)c12` [Compound I-42], the 50% effective concentration (EC50) was 74 nM.

Take `CCC[C@@H](C)Nc1nc(N)nc2cnn(Cc3ccc(CN4CC5(COC5)C4)cc3OC)c(=O)c12` [Compound I-43, (R)-6-(4-((2-oxo-6-azaspiro[3.3]heptan-6-yl)methyl)-2-methoxybenzyl)-2-amino-4-(pentan-2-ylamino)pyrimido[4,5-d]pyridazin-5(6H)-one]: the EC50 was 233 nM.

Regarding `CCC[C@@H](C)Nc1nc(N)nc2cnn(Cc3ccc(CNCCO)cc3OC)c(=O)c12` [Compound I-44], the EC50 worked out at 112 nM.

`CCC[C@@H](C)Nc1nc(N)nc2cnn(Cc3ccc(C4CCNCC4)cc3)c(=O)c12` [Compound I-55, (R)-2-amino-4-(pentan-2-ylamino)-6-(4-(piperidin-4-yl)benzyl)pyrimido[4,5-d]pyridazin-5(6H)-one] gave an EC50 of 169 nM.

`CCC[C@@H](C)Nc1nc(N)nc2cnn(Cc3ccc(C(=O)N4CCNCC4)cc3)c(=O)c12` [Compound I-56, (R)-2-amino-4-(pentan-2-ylamino)-6-(4-(piperazine-1-carbonyl)benzyl)pyrimido[4,5-d]pyridazin-5(6H)-one] displayed an EC50 of 70 nM.
